Measurements: US20130115133A1, “INACTIVATION OF MICROORGANISMS WITH MULTIDRUG RESISTANCE INHIBITORS AND PHENOTHIAZINIUMS” (priority 2004, published 2013)
Read-outs that look alike come from different tables or passages of the source. Non-standard residues stand in square brackets, D forms with d. Residues, ends and D or L forms follow the SMILES beside them. ξ: configuration not given here. *: point of attachment. ξR = N=C(N)NCCCC(N)C(=O)O; βNA = c1ccc2cc(N*)ccc2c1

Key:
[1] = test system: S. aureus NorA-, wild type, and NorA+; test: Photodynamic inactivation (PDI), light-dose dependent phototoxicity; type: cell-based, Staphylococcus aureus; settings: 10 μM; for light dose by which strain is eliminated: NorA knockout strain, 635-nm light 100 mWcm^-2; for light dose by which strain is eliminated / logs of killing: 30 min; for logs less killing than wild-type: NorA overexpression strain, 635-nm light; for overall order of efficiency of killing: S. aureus NorA strains; for logs less killing compared to wild-type: NorA overexpressing strain; for logs of killing: wild-type strain
Description: (§1) A polylysine-chlorine6 conjugate (pL-ce6), and Rose Bengal (RB) (Sigma-Aldrich) were used as non-phenothiazinium-based PS (FIG. 3). Stock solutions were prepared in water at a concentration of 2-mM and stored for a maximum of 2 weeks at 4° C. in the dark before use. Spectra of stock solutions diluted 140-280 fold in methanol were recorded on an UV-visible spectroscopy system (Waldbronn, Germany). A non-coherent light source with interchangeable fiber bundles (LC122, LumaCare, London, UK) was employed. Thirty-nm band pass filters at ranges 540±15 nm for RB, 635±15 nm for TBO, and DMMB, and 660±15 nm for MB and pLce6 were used. The total power output provided out of the fiber bundle ranged from 300-700 mW. The spot was arranged to give an irradiance of 100 mW/cm^2.
(§2) Bacterial suspensions in PBS (initial concentration 10^8 cells mL^−1) were incubated with PS in the dark at room temperature for 30 minutes at concentrations varying from 1-μM to 300-μM. The cell suspensions were centrifuged at 12000 rpm and then washed twice with sterile PBS. The bacterial suspensions were placed in wells of 96 well micro titer plates (Fisher Scientific) and illuminated with appropriate light at room temperature. Fluences ranged from 0 to 20 Jcm^−2 at a fluence rate of 100 mWcm^−2. During illumination, aliquots of […] were taken to determine the colony-forming units. The contents of the wells were mixed before sampling. The aliquots were serially diluted 10-fold in PBS to give dilutions of 10^−1-10^−6 times the original concentrations and were streaked horizontally on square BHI agar plates as described by Jett et al (1997). This allowed a maximum of seven logs of killing to be measured. Plates were incubated at 37° C. overnight. Two types of control conditions were used: illumination in the absence of photosensitizer and incubation with photosensitizer in the dark.
The three isogenic strains of S. aureus were incubated with 10 μM MB for 30 minutes and then washed free of unbound dye by centrifugation and resuspension in PBS and illuminated with 100 mWcm^−2 660-nm light, and the survival fractions determined as described above.
To establish the recognition of phenothiazinium dyes as a class by NorA, the experiments described in FIG. 4 were repeated with the phenothiazinium compounds TBO and DMMB. Incubation with the photosensitizer was for 30 min followed by a wash. Bacteria were then illuminated with 100 mWcm^−2 635-nm light for both TBO and DMMB. The results shown in FIGS. 7a and 7b show a similar pattern to the susceptibilities as was found for MB. The NorA knockout strain is eliminated by 1 J/cm2 in the case of TBO and by 0.5 J/cm2 in the case of DMMB. […]

[2] = test system: E. coli wild type and TolC-; type: cell-based, Escherichia coli
Description: as §1, §2
It was necessary to use higher overall PDI doses to kill the Gram-negative E. coli compared to the Gram-positive S. aureus. A concentration of MB of 50 μM was selected with the same 30-minute incubation and wash by centrifugation, together with light doses up to 20 J/cm^2.

[3] = test system: P. aeruginosa MexAB-, wild type and MexAB+; type: cell-based, Pseudomonas aeruginosa; settings: wild-type strain; 300 μM; after 20 J/cm2
Description: A polylysine-chlorine6 conjugate (pL-ce6), and Rose Bengal (RB) (Sigma-Aldrich) were used as non-phenothiazinium-based PS (FIG. 3). Stock solutions were prepared in water at a concentration of 2-mM and stored for a maximum of 2 weeks at 4° C. in the dark before use. Spectra of stock solutions diluted 140-280 fold in methanol were recorded on an UV-visible spectroscopy system (Waldbronn, Germany). A non-coherent light source with interchangeable fiber bundles (LC122, LumaCare, London, UK) was employed. […] The total power output provided out of the fiber bundle ranged from 300-700 mW. The spot was arranged to give an irradiance of 100 mW/cm^2.
Bacterial suspensions in PBS (initial concentration 10^8 cells mL^−1) were incubated with PS in the dark at room temperature for 30 minutes at concentrations varying from 1-μM to 300-μM. The cell suspensions were centrifuged at 12000 rpm and then washed twice with sterile PBS. The bacterial suspensions were placed in wells of 96 well micro titer plates (Fisher Scientific) and illuminated with appropriate light at room temperature. Fluences ranged from 0 to 20 Jcm^−2 at a fluence rate of 100 mWcm^−2. During illumination, aliquots of 10 were taken to determine the colony-forming units. The contents of the wells were mixed before sampling. […] This allowed a maximum of seven logs of killing to be measured. […]

P. aeruginosa PAO1 = type: cell-based, Pseudomonas aeruginosa; settings: inhibitor 10 ug/ml with TBO 250 μM, 30 min, wash; 660-nm light 100 mWcm^-2

Cc1cc2nc3ccc(N(C)C)cc3[s+]c2cc1N.[Cl-] [TBO, Toluidine blue O]
light dose by which strain is eliminated ([1]; wash): ≤ 1 J/cm2
logs less killing than wild-type [1]: roughly 2 logs
overall order of efficiency of killing [1]: DMMB>TBO>MB

O=C1OC2(c3cc(I)c(O)c(I)c3Oc3c2cc(I)c(O)c3I)c2c(Cl)c(Cl)c(Cl)c(Cl)c21 [RB, Rose Bengal]
differences in killing between the three NorA phenotypes ([1]; wash, 540-nm light 100 mWcm^-2): no differences in killing

CN(C)c1ccc2nc3ccc(=[N+](C)C)cc-3sc2c1 [MB, methylene blue]
killing ([1]; NorA knock-out, 660-nm light, after 1 J/cm^2): complete killing
logs less killing compared to wild-type ([1]; 660-nm light, at 1 J/cm^2): 1 log
logs less killing compared to wild-type ([1]; 660-nm light, at 2 J/cm^2): 2 logs
logs less killing compared to wild-type ([1]; 660-nm light, at 4 J/cm^2): 3 logs
logs of killing ([1]; wash, 660-nm light 100 mWcm^-2, after 1 J/cm^2): 3 logs
logs of killing ([1]; wash, 660-nm light, after 2 J/cm^2): 5 logs
logs of killing ([1]; wash, 660-nm light, after 4 J/cm^2): 7 logs
logs more killing than wild-type ([2]; TolC knock-out mutant, 50 μM, 30 min, wash, at 5 J/cm^2): 2 logs
logs more killing than wild-type ([2]; TolC knock-out mutant, 50 μM, at 10 J/cm^2): three
killing ([2]; TolC knock-out mutant, 50 μM, light doses higher than 10 J/cm^2 (up to 20 J/cm^2)): totally eliminated
killing ([2]; TolC knock-out, 250 μM, after 20 J/cm^2 (data not shown)): totally eliminated
killing ([2]; wild-type, 250 μM, after 20 J/cm^2 (data not shown)): totally eliminated
logs of killing [3]: 5 logs

Cc1cc(N(C)C)cc2[s+]c3cc(N(C)C)cc(C)c3nc12 [DMMB, 1,9-dimethylmethylene blue]
light dose by which strain is eliminated ([1]; wash): ≤ 0.5 J/cm2
logs less killing than wild-type [1]: roughly 2 logs
overall order of efficiency of killing [1]: DMMB>TBO>MB

NC(N)=NCCCC(NC(=O)[C@@H](N)Cc1ccccc1)C(=O)Nc1ccc2ccccc2c1 (stereo partly drawn) [MC207110] (H-Phe-[ξR]-βNA)
logs of killing (P. aeruginosa PAO1): 5 logs
